Data from US20090286781A1, “Use of Suluble Guanylate Cyclase Acitvators for Treating Acute and Chronic Lung Diseases” (Bayer HealtHCare AG, priority 2005, published 2009).

Test system: male C57B1/6J mice subjected to hypoxia (10% O2)
Assay: Hypoxia model of experimental pulmonary hypertension
Assay type: in vivo
Settings: hypoxia (10% O2) for 7 or 10 days; 300 ppm of compound in the feed for 10 days; lung histology; compared with the hypoxia control animals (FIG. 1)
From the text: The method for investigating the effect of the compound (IV) of the invention in the model of experimental pulmonary hypertension was as described (Dumitrascu R, Weissmann N, Ghofrani H A, Beuerlein K, Schmidt H H H W, Stasch J P, Gnoth M J, Seeger W, Grimminger F, Schermuly R T, Activation of soluble guanylate cyclase reverses lung vascular remodeling and pulmonary hypertension evoked by hypoxia in mice, Circulation 2006, 113: 286-295). For this purpose, male C57B1/6J mice (Charles River Laboratories) were subjected to hypoxia (10% O2) for 7 or 10 days. The control animals were kept in a normal oxygen environment. The mice were treated for 10 days with 300 ppm of compound (IV) in the feed. At the end of the test, the mice were sacrificed and the lungs were isolated. Histological workup and evaluation was carried out as in the abovementioned publication.

Compound: COC(=O)N(C)c1c(N)nc(-c2nn(Cc3ccccc3F)c3ncccc23)nc1N [Compound (IV)]
- non-muscularized and partly muscularized fraction of the pulmonary vessels: significantly reduced
